# Columns and labels:
# Wnt/β-catenin signal [1] = assay: Dual-luciferase reporter assay in HSC2 cells; type: cell-based; settings: 48 hours
# Protocol: First, 5×10^4 of HSC2 cells were seeded on each well of a 24-well plate. After 24 hours, transfection was carried out by using 1 μL of lipofectamine 2000 (Invitrogen, Life Technologies Corp., Carlsbad, Calif.), 50 ng of pTCF4-CMVpro-FLuc, and 2.5 ng of pCMVpro-Rluc. After 48 hours from the low-molecular-weight compound treatment, 100 μL of 20% Passive Lysis Buffer (PROMEGA, Wisconsin, USA) was added to each well of the 24-well plate. The plate was shaken at ordinary temperature for 15 min and was then allowed to stand overnight at −30° C. On the following day, a Dual-Luciferase (a registered trademark) Reporter Assay System (PROMEGA) was used, and luciferase activity was then measured by using a MiniLumat LB 9506 (Berthold Technologies, Bad Wildbad, German).
# [2] = test system: CD44-negative and CD44-positive HuH7 cells; assay: Sphere formation capability of sorted HuH7 cells; type: cell-based, human; settings: 50 μM IC-2, 10 μM PN-3-13; one week
# Protocol: First, HuH7 cells were collected. Next, the cells were stained with an anti-human CD44 monoclonal antibody (Cell Signaling Technology Inc., Danvers, Mass., USA)), and then with an Alexa 488-labeled goat anti-mouse IgG antibody. After that, a Beckman Coulter-MoFlo XDP (Beckman Coulter Inc., Fullerton, Calif., USA) was used to sort the cells into a CD44-negative fraction and a CD44-positive fraction. The sorted cells were seeded at 5×10^4 cells/well on a 24-well ultra-low-attachment multiwell plate (Corning, N.Y., USA). Subsequently, the cells were cultured at 37° C. in the presence of 5% CO2 in a DMEM/Nutrient Mixture F-12 Ham (Sigma-Aldrich, St. Louis, Mo., USA) containing 20 ng/mL of recombinant human epidermal growth factor, 20 ng/mL of human basic fibroblast growth factor, 1×B27, and L-glutamine. Twenty-four hours after the plating, 1% DSMO, 50 μM IC-2, and 10 μM PN-3-13 were each added to the corresponding well and the cells were further cultured. One week after the chemical treatment, the number of spheres (with a size of 100 μm or larger) in 15 visual fields/well was counted.
# Wnt/β-catenin signal [3] = settings: induces differentiation of the mesenchymal stem cell into hepatocytes; cited from earlier work
smiles,measurement,setting,value
O=C1[C@H](Cc2ccccc2)N2C(=O)CCN(C(=O)NCc3ccccc3)[C@H]2CN1Cc1cccc2ccccc12 [IC-2],inhibitory effect on a Wnt/β-catenin signal in the squamous cell carcinoma cells,Wnt/β-catenin signal [1],exerted an inhibitory effect
same,"formation of spheres, CD44-negative HuH7 cells",[2],inhibited formation of spheres
same,"formation of spheres, CD44-positive HuH7 cells",[2],inhibited formation of spheres
same,inhibition of a Wnt/β-catenin signal in a mesenchymal stem cell,Wnt/β-catenin signal [3],inhibit a Wnt/β-catenin signal

# From patent publication US11213527B2, “Inhibitory effect of low molecular weight compound on cancer and fibrosis” (NATIONAL UNIVERSITY CORPORATION TOTTORI UNIVERSITY, priority 2014, dated 2022)
